# Laboratory results: US7138361B2, “Herbicidal heterocycles” (E. I. du Pont de Nemours and Company, priority 2000, dated 2006)
# How the values were obtained:
# Type in all cases: in vivo
# corn (Zea mays) = assay: Test C preemergence; details: for Plant response rating (0 to 100), Corn: visual evaluation after 12 to 14 days
# From the text: (§1) Seeds of plant species selected from bermudagrass (Cynodon dactylon), Surinam grass (Brachiaria decumbens), cocklebur (Xanthium strumarium), corn (Zea mays), crabgrass (Digitaria sanguinalis), woolly cupgrass (Eriochloa villosa), giant foxtail (Setaria faberii), goosegrass (Eleusine indica), johnsongrass (Sorghum halepense), kochia (Kochia scoparia), lambsquarters (Chenopodium album), morningglory (Ipomoea hederacea), yellow nutsedge (Cyperus esculentus), pigweed (Amaranthus retroflexus), common ragweed (Ambrosia elatior), soybean (Glycine max) and velvetleaf (Abutilon theophrasti) were planted and treated preemergence with test chemicals formulated in a non-phytotoxic solvent mixture which included a surfactant.
# (§2) At the same time, plants selected from these crop and weed species and also winter barley (Hordeum vulgare), blackgrass (Alopecurus myosuroides), canary grass (Phalaris minor), chickweed (Stellaria media), downy brome (Bromus tectorum), green foxtail (Setaria viridis), Italian ryegrass (Lolium multiflorum), wheat (Triticum aestivum), wild oat (Avena fatua) and windgrass (Apera spica-venti) were treated with postemergence applications of some of the test chemicals formulated in the same manner. Plants ranged in height from 2 to 18 cm (1- to 4-leaf stage) for postemergence treatments. Plant species in the flooded paddy test consisted of rice (Oryza saliva), smallflower flatsedge (Cyperus difformis), duck salad (Heteranthera limosa) and barnyardgrass (Echinochloa crus-galli) grown to the 2-leaf stage for testing. Treated plants and controls were maintained in a greenhouse for 12 to 14 days, after which time all species were compared to controls and visually evaluated. Plant response ratings, summarized in Table C, are based on a scale of 0 to 100 where 0 is no effect and 100 is complete control. A dash (-) response means no test result.
# [1] = tested on: morningglory (Ipomoea hederacea); assay: Test C preemergence
# From the text: as §1, §2
# [2] = tested on: Surinam grass (Brachiaria decumbens); assay: Test C preemergence; details: for Plant response rating (0 to 100), Surinam grass: visual evaluation after 12 to 14 days
# From the text: as §1, §2
# [3] = tested on: lambsquarters (Chenopodium album); assay: Test C preemergence; details: for Plant response rating, Lambsquarters: scale 0 to 100, 0 no effect, 100 complete control
# From the text: as §1, §2
# kochia (Kochia scoparia) = assay: Test C preemergence; details: for Plant response rating (0 to 100), Kochia: visual evaluation after 12 to 14 days
# From the text: as §1, §2
# [4] = tested on: bermudagrass (Cynodon dactylon); assay: Test C preemergence; details: for Plant response rating (0 to 100 where 0 is no effect and 100 is complete control), Bermudagrass: visual evaluation after 12 to 14 days
# From the text: as §1, §2
# [5] = tested on: goosegrass (Eleusine indica); assay: Test C preemergence; details: for Plant response rating (0 to 100), Goosegrass: visual evaluation after 12 to 14 days
# From the text: as §1, §2
# [6] = tested on: woolly cupgrass (Eriochloa villosa); assay: Test C preemergence; details: for Plant response rating (0 to 100), Cupgrass, Woolly: visual evaluation after 12 to 14 days
# From the text: as §1, §2
# soybean (Glycine max) = assay: Test C preemergence; details: preemergence
# From the text: as §1, §2
# [7] = tested on: velvetleaf (Abutilon theophrasti); assay: Test C preemergence; details: preemergence
# From the text: as §1, §2
# Nightshade = assay: Test C preemergence
# From the text: as §1, §2
# [8] = tested on: pigweed (Amaranthus retroflexus); assay: Test C preemergence; details: preemergence
# From the text: as §1, §2
# [9] = tested on: giant foxtail (Setaria faberii); assay: Test C preemergence; details: for Plant response rating (0 to 100), Foxtail, Giant: visual evaluation after 12 to 14 days
# From the text: as §1, §2
# [10] = tested on: johnsongrass (Sorghum halepense); assay: Test C preemergence; details: for Plant response rating (0 to 100), Johnsongrass: visual evaluation after 12 to 14 days
# From the text: as §1, §2
# [11] = tested on: crabgrass (Digitaria sanguinalis); assay: Test C preemergence; details: for Plant response rating (0 to 100), Crabgrass: visual evaluation after 12 to 14 days
# From the text: as §1, §2
# [12] = tested on: yellow nutsedge (Cyperus esculentus); assay: Test C preemergence
# From the text: as §1, §2
# [13] = tested on: cocklebur (Xanthium strumarium); assay: Test C preemergence; details: for Plant response rating (0 to 100), Cocklebur: visual evaluation after 12 to 14 days
# From the text: as §1, §2
# [14] = tested on: smallflower flatsedge (Cyperus difformis); assay: Test C flooded paddy test; details: for Flatsedge plant response rating: Flooded Paddy, scale 0 to 100, 0 no effect, 100 complete control
# Procedure, shortened: (§3)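 Plants were grown to the 2-leaf stage under flooded paddy conditions and treated. They were then kept in a greenhouse for 12 to 14 days and visually rated against untreated controls on a 0–100 scale, where 0 is no effect and 100 is complete control.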
# [15] = tested on: duck salad (Heteranthera limosa); assay: Test C flooded paddy test; details: for Ducksalad plant response rating: Flooded Paddy, scale 0 to 100, 0 no effect, 100 complete control
# Procedure, shortened: as §3
# [16] = tested on: barnyardgrass (Echinochloa crus-galli); assay: Test C flooded paddy test; details: for Barnyardgrass plant response rating: Flooded Paddy, scale 0 to 100, 0 no effect, 100 complete control
# Procedure, shortened: as §3
# Sunflower = assay: Test C preemergence; details: Rate 500 g/ha, visual evaluation after 12 to 14 days
# [17] = Rate 62 g/ha, scale 0 to 100, 0 no effect, 100 complete control
# [18] = preemergence, Rate 31 g/ha, scale 0 to 100
# [19] = preemergence, Rate 125 g/ha, scale 0 to 100, 0 no effect, 100 complete control
# [20] = preemergence, Rate 500 g/ha, visual evaluation after 12 to 14 days
# [21] = preemergence, Rate 250 g/ha, scale 0 to 100, 0 no effect, 100 complete control
# [22] = Rate 500 g/ha, visual evaluation after 12 to 14 days
# [23] = Rate 125 g/ha, scale 0 to 100, 0 no effect, 100 complete control
# [24] = Rate 250 g/ha, scale 0 to 100, 0 no effect, 100 complete control
# [25] = flooded paddy test, Rate 62 g/ha, scale 0 to 100 (0 no effect, 100 complete control)
compound,measurement,setting,value
CC(C)Oc1cccc(N2CCC(n3ccc(C(C)(C)C)n3)C2=O)c1 (stereo not drawn) [Compound 70],"Plant response rating, Corn",corn (Zea mays); [17],0
same,"Plant response rating, Corn",corn (Zea mays); [18],0
same,"Plant response rating (0 to 100), Corn","corn (Zea mays); preemergence, Rate 250 g/ha",0
same,"Plant response rating (0 to 100), Corn","corn (Zea mays); preemergence, Rate 500 g/ha",20
same,"Plant response rating, Corn",corn (Zea mays); [19],0
same,"Plant response rating, Morningglory",[1]; [17],20
same,"Plant response rating, Morningglory",[1]; [18],0
same,"Plant response rating (0 to 100), Morningglory",[1]; [20],40
same,"Plant response rating, Morningglory",[1]; [19],0
same,"Plant response rating, Morningglory",[1]; [21],0
same,"Plant response rating, Surinam grass",[2]; [17],60
same,"Plant response rating, Surinam grass",[2]; [18],20
same,"Plant response rating (0 to 100), Surinam grass","[2]; preemergence, Rate 250 g/ha",70
same,"Plant response rating (0 to 100), Surinam grass","[2]; preemergence, Rate 500 g/ha",80
same,"Plant response rating, Surinam grass",[2]; [19],70
same,"Plant response rating, Lambsquarters",[3]; Rate 62 g/ha,100
same,"Plant response rating (0 to 100), Lambsquarters",[3]; [20],100
same,"Plant response rating, Lambsquarters","[3]; preemergence, Rate 125 g/ha",100
same,"Plant response rating, Lambsquarters","[3]; preemergence, Rate 250 g/ha",100
same,"Plant response rating, Kochia",kochia (Kochia scoparia); [17],80
same,"Plant response rating, Kochia",kochia (Kochia scoparia); [18],0
same,"Plant response rating (0 to 100), Kochia","kochia (Kochia scoparia); preemergence, Rate 250 g/ha",100
same,"Plant response rating (0 to 100), Kochia","kochia (Kochia scoparia); preemergence, Rate 500 g/ha",100
same,"Plant response rating, Kochia",kochia (Kochia scoparia); [19],90
same,"Plant response rating, Bermudagrass",[4]; [17],100
same,"Plant response rating, Bermudagrass",[4]; [18],80
same,"Plant response rating (0 to 100 where 0 is no effect and 100 is complete control), Bermudagrass","[4]; preemergence, Rate 250 g/ha",100
same,"Plant response rating (0 to 100 where 0 is no effect and 100 is complete control), Bermudagrass","[4]; preemergence, Rate 500 g/ha",100
same,"Plant response rating, Bermudagrass",[4]; [19],100
same,"Plant response rating, Goosegrass",[5]; [17],90
same,"Plant response rating, Goosegrass",[5]; [18],30
same,"Plant response rating (0 to 100), Goosegrass","[5]; preemergence, Rate 250 g/ha",100
same,"Plant response rating (0 to 100), Goosegrass","[5]; preemergence, Rate 500 g/ha",100
same,"Plant response rating, Goosegrass",[5]; [19],100
same,"Plant response rating, Cupgrass, Woolly",[6]; [17],70
same,"Plant response rating, Cupgrass, Woolly",[6]; [18],0
same,"Plant response rating (0 to 100), Cupgrass, Woolly","[6]; preemergence, Rate 250 g/ha",100
same,"Plant response rating (0 to 100), Cupgrass, Woolly","[6]; preemergence, Rate 500 g/ha",100
same,"Plant response rating, Cupgrass, Woolly",[6]; [19],100
same,"Plant response rating, Soybean","soybean (Glycine max); Rate 31 g/ha, scale 0 to 100",0
same,"Plant response rating (0 to 100), Soybean",soybean (Glycine max); [22],20
same,"Plant response rating, Soybean",soybean (Glycine max); [23],10
same,"Plant response rating, Soybean",soybean (Glycine max); [24],20
same,"Plant response rating, Velvetleaf","[7]; Rate 31 g/ha, scale 0 to 100",0
same,"Plant response rating (0 to 100), Velvetleaf",[7]; [22],10
same,"Plant response rating, Velvetleaf",[7]; [23],0
same,"Plant response rating, Velvetleaf",[7]; [24],0
same,"Plant response rating, Nightshade","Nightshade; Rate 31 g/ha, scale 0 to 100",20
same,"Plant response rating, Nightshade",Nightshade; [17],30
same,"Plant response rating, Nightshade",Nightshade; [23],50
same,"Plant response rating, Nightshade",Nightshade; [24],70
same,"Plant response rating, Pigweed","[8]; Rate 31 g/ha, scale 0 to 100",0
same,"Plant response rating (0 to 100), Pigweed",[8]; [22],100
same,"Plant response rating, Pigweed",[8]; [23],20
same,"Plant response rating, Pigweed",[8]; [24],0
same,"Plant response rating, Foxtail, Giant",[9]; [17],100
same,"Plant response rating, Foxtail, Giant",[9]; [18],0
same,"Plant response rating (0 to 100), Foxtail, Giant","[9]; preemergence, Rate 250 g/ha",100
same,"Plant response rating (0 to 100), Foxtail, Giant","[9]; preemergence, Rate 500 g/ha",100
same,"Plant response rating, Foxtail, Giant",[9]; [19],100
same,"Plant response rating, Johnsongrass",[10]; [17],0
same,"Plant response rating, Johnsongrass",[10]; [18],0
same,"Plant response rating (0 to 100), Johnsongrass","[10]; preemergence, Rate 250 g/ha",50
same,"Plant response rating (0 to 100), Johnsongrass","[10]; preemergence, Rate 500 g/ha",70
same,"Plant response rating, Johnsongrass",[10]; [19],10
same,"Plant response rating, Crabgrass",[11]; [17],100
same,"Plant response rating, Crabgrass",[11]; [18],30
same,"Plant response rating (0 to 100), Crabgrass","[11]; preemergence, Rate 250 g/ha",100
same,"Plant response rating (0 to 100), Crabgrass","[11]; preemergence, Rate 500 g/ha",100
same,"Plant response rating, Crabgrass",[11]; [19],100
same,"Plant response rating, Nutsedge",[12]; [17],0
same,"Plant response rating, Nutsedge",[12]; [18],0
same,"Plant response rating (0 to 100), Nutsedge",[12]; [20],0
same,"Plant response rating, Nutsedge",[12]; [19],0
same,"Plant response rating, Nutsedge",[12]; [21],0
same,"Plant response rating, Cocklebur",[13]; [17],0
same,"Plant response rating, Cocklebur",[13]; [18],0
same,"Plant response rating (0 to 100), Cocklebur","[13]; preemergence, Rate 250 g/ha",0
same,"Plant response rating (0 to 100), Cocklebur","[13]; preemergence, Rate 500 g/ha",20
same,"Plant response rating, Cocklebur",[13]; [19],0
same,Flatsedge plant response rating,[14]; Rate 250 g/ha,90
same,Flatsedge plant response rating,[14]; Rate 500 g/ha,90
same,"Plant response rating, Flatsedge",[14]; [25],90
same,Ducksalad plant response rating,[15]; Rate 250 g/ha,100
same,Ducksalad plant response rating,[15]; Rate 500 g/ha,100
same,"Plant response rating, Ducksalad",[15]; [25],100
same,Barnyardgrass plant response rating,[16]; Rate 250 g/ha,100
same,Barnyardgrass plant response rating,[16]; Rate 500 g/ha,100
same,"Plant response rating, Barnyardgrass",[16]; [25],60
same,"Plant response rating (0 to 100), Sunflower",Sunflower,60
